Assay results from PubChem BioAssay AID256 (DTP/NCI, 2004).
Toxic doses and inconclusive results are not listed. Rule for the calls: active = survival T/C of 150% or more; inactive = T/C below 125% in these data.

Tested on: CD2F1 mice, L1210 leukemia ip, survival T/C
Experiment: NCI In Vivo Anticancer Drug Screen. Data for tumor model L1210 Leukemia (intraperitoneal) in CD2F1 (CDF1) mice
Details: higher = longer survival
Method in brief: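 Antitumor effect is scored in animals hosting a serially transplanted tumor. Values compare compound-dosed animals against vehicle-only controls as a simple quotient.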

[1] = endpoint: mean survival time, dose: 50.0 mg/kg/injection, schedule: Q01DX009 (ip), vehicle: saline with Tween-80
[2] = endpoint: mean survival time, dose: 100.0 mg/kg/injection, schedule: Q01DX009 (ip), vehicle: saline with Tween-80
[3] = endpoint: mean survival time, dose: 100.0 mg/kg/injection, schedule: Q04DX003 (ip), vehicle: saline with Tween-80
[4] = endpoint: mean survival time, dose: 200.0 mg/kg/injection, schedule: Q04DX003 (ip), vehicle: saline with Tween-80
[5] = endpoint: mean survival time, dose: 400.0 mg/kg/injection, schedule: Q04DX003 (ip), vehicle: saline with Tween-80
[6] = endpoint: mean survival time, dose: 100.0 mg/kg/injection, schedule: Q01DX001 (ip), vehicle: saline
[7] = endpoint: mean survival time, dose: 200.0 mg/kg/injection, schedule: Q01DX001 (ip), vehicle: saline
[8] = endpoint: mean survival time, dose: 100.0 mg/kg/injection, schedule: Q01DX001 (ip), vehicle: saline with Tween-80
[9] = endpoint: mean survival time, dose: 100.0 mg/kg/injection, schedule: Q04DX002 (ip), vehicle: saline with Tween-80
[10] = endpoint: mean survival time, dose: 200.0 mg/kg/injection, schedule: Q01DX001 (ip), vehicle: saline with Tween-80
[11] = endpoint: mean survival time, dose: 200.0 mg/kg/injection, schedule: Q04DX002 (ip), vehicle: saline with Tween-80
[12] = endpoint: mean survival time, dose: 400.0 mg/kg/injection, schedule: Q01DX001 (ip), vehicle: saline with Tween-80
[13] = endpoint: mean survival time, dose: 400.0 mg/kg/injection, schedule: Q04DX002 (ip), vehicle: saline with Tween-80
[14] = endpoint: mean survival time, dose: 200.0 mg/kg/injection, schedule: Q01DX009 (ip), vehicle: saline with Tween-80

Measured: T/C

NC(N)=N/N=C/c1ccc(Cl)cc1Cl
inactive: endpoint: mean survival time, dose: 8.0 mg/kg/injection, schedule: Q01DX Z (ip), vehicle: saline 88 % of control | endpoint: mean survival time, dose: 16.0 mg/kg/injection, schedule: Q01DX Z (ip), vehicle: saline 96 % of control | endpoint: mean survival time, dose: 31.0 mg/kg/injection, schedule: Q01DX Z (ip), vehicle: saline 92 % of control | endpoint: mean survival time, dose: 62.0 mg/kg/injection, schedule: Q01DX Z (ip), vehicle: saline 95 % of control

CCCCCCCCCCCCCCCc1nnc(SC)s1
inactive: [1] 95 % of control | [2] 88 % of control | [3] 91 % of control | [4] 87 % of control | [5] 96 % of control

CCCNC(C)(C)C(SS)c1ccc(C(F)(F)F)cc1 (centres undefined)
inactive: endpoint: mean survival time, dose: 200.0 mg/kg/injection, schedule: Q04DX003 (ip), vehicle: other 100 % of control | endpoint: mean survival time, dose: 400.0 mg/kg/injection, schedule: Q04DX003 (ip), vehicle: other 90 % of control

OCC1OC(n2nnc3cc[nH]c(=S)c32)C(O)C1O (centres undefined)
inactive: endpoint: mean survival time, dose: 11.9 mg/kg/injection, schedule: Q01DX005 (ip), vehicle: water 96 % of control | endpoint: mean survival time, dose: 23.8 mg/kg/injection, schedule: Q01DX005 (ip), vehicle: water 113 % of control

Cc1cc(Cl)ccc1NC(=O)Nc1c(Oc2ccc(Cl)cc2)ccc(Cl)c1S(=O)(=O)O
inactive: [6] 96 % of control | [7] 98 % of control

O=C(O)C[N-]c1ccccc1.O=C(O)C[N-]c1ccccc1.[Ni+2]
inactive: endpoint: mean survival time, dose: 25.0 mg/kg/injection, schedule: Q01DX009 (ip), vehicle: saline with Tween-80 95 % of control | endpoint: mean survival time, dose: 50.0 mg/kg/injection, schedule: Q04DX003 (ip), vehicle: saline with Tween-80 107 % of control | [3] 106 % of control

CCOC(=O)/C=C/c1ccc2c(c1)OCO2
inactive: [3] 97 % of control | [4] 94 % of control | [5] 103 % of control

CC#CC#CC(=O)c1ccccc1
inactive: endpoint: mean survival time, dose: 5.0 mg/kg/injection, schedule: Q01DX001 (ip), vehicle: saline 97 % of control | endpoint: mean survival time, dose: 10.0 mg/kg/injection, schedule: Q01DX001 (ip), vehicle: saline 100 % of control

CC(C)(C)C1CCC(S(=O)c2ccccc2)CC1 (centres undefined)
inactive: [8] 105 % of control | [9] 90 % of control | [10] 100 % of control | [11] 93 % of control | [12] 103 % of control | [13] 93 % of control

CCCCN(N=O)C(=O)Nc1ccc(C2CC(=O)N(C)C2=O)cc1 (centres undefined)
inactive: endpoint: mean survival time, dose: 12.5 mg/kg/injection, schedule: Q01DX001 (ip), vehicle: distilled water + Tween-80 103 % of control | endpoint: mean survival time, dose: 25.0 mg/kg/injection, schedule: Q01DX001 (ip), vehicle: distilled water + Tween-80 99 % of control | endpoint: mean survival time, dose: 50.0 mg/kg/injection, schedule: Q01DX001 (ip), vehicle: distilled water + Tween-80 112 % of control | endpoint: mean survival time, dose: 100.0 mg/kg/injection, schedule: Q01DX001 (ip), vehicle: distilled water + Tween-80 112 % of control | endpoint: mean survival time, dose: 200.0 mg/kg/injection, schedule: Q01DX001 (ip), vehicle: distilled water + Tween-80 120 % of control

CCN(CCNC(=O)Nc1ccccc1OC)c1ccccc1
inactive: [9] 98 % of control | [11] 94 % of control | [13] 94 % of control

CCc1c(CC(=O)O)c2cc(C)ccc2n1Cc1ccc(Cl)cc1
inactive: endpoint: mean survival time, dose: 3.12 mg/kg/injection, schedule: Q01DX009 (ip), vehicle: Klucel (hydroxypropylcellulose) (HPC) 91 % of control | endpoint: mean survival time, dose: 6.25 mg/kg/injection, schedule: Q01DX009 (ip), vehicle: Klucel (hydroxypropylcellulose) (HPC) 104 % of control | endpoint: mean survival time, dose: 12.5 mg/kg/injection, schedule: Q01DX009 (ip), vehicle: Klucel (hydroxypropylcellulose) (HPC) 107 % of control | endpoint: mean survival time, dose: 25.0 mg/kg/injection, schedule: Q01DX009 (ip), vehicle: Klucel (hydroxypropylcellulose) (HPC) 102 % of control | endpoint: mean survival time, dose: 50.0 mg/kg/injection, schedule: Q01DX009 (ip), vehicle: Klucel (hydroxypropylcellulose) (HPC) 91 % of control | endpoint: mean survival time, dose: 100.0 mg/kg/injection, schedule: Q01DX009 (ip), vehicle: Klucel (hydroxypropylcellulose) (HPC) 96 % of control

CCCCCCCCCCCCCCCC[N+](C)(C)CC#CCCl
inactive: endpoint: mean survival time, dose: 6.25 mg/kg/injection, schedule: Q04DX002 (ip), vehicle: saline with Tween-80 96 % of control | endpoint: mean survival time, dose: 12.5 mg/kg/injection, schedule: Q04DX002 (ip), vehicle: saline with Tween-80 88 % of control | endpoint: mean survival time, dose: 25.0 mg/kg/injection, schedule: Q04DX002 (ip), vehicle: saline with Tween-80 88 % of control

Nc1ncnc2c1c1c(=O)[nH]cnc1n2C1OC(CO)C(O)C1O (centres undefined)
inactive: endpoint: mean survival time, dose: 6.25 mg/kg/injection, schedule: Q01DX005 (ip), vehicle: Klucel (hydroxypropylcellulose) (HPC) 98 % of control | endpoint: mean survival time, dose: 12.5 mg/kg/injection, schedule: Q01DX005 (ip), vehicle: Klucel (hydroxypropylcellulose) (HPC) 104 % of control | endpoint: mean survival time, dose: 25.0 mg/kg/injection, schedule: Q01DX005 (ip), vehicle: Klucel (hydroxypropylcellulose) (HPC) 108 % of control | endpoint: mean survival time, dose: 50.0 mg/kg/injection, schedule: Q01DX005 (ip), vehicle: Klucel (hydroxypropylcellulose) (HPC) 115 % of control | endpoint: mean survival time, dose: 100.0 mg/kg/injection, schedule: Q01DX005 (ip), vehicle: Klucel (hydroxypropylcellulose) (HPC) 120 % of control

O=[N+]([O-])c1ccc2cn[nH]c2c1
inactive: endpoint: mean survival time, dose: 100.0 mg/kg/injection, schedule: Q01DX001 (ip), vehicle: alcohol 92 % of control | endpoint: mean survival time, dose: 200.0 mg/kg/injection, schedule: Q01DX001 (ip), vehicle: alcohol 98 % of control | endpoint: mean survival time, dose: 400.0 mg/kg/injection, schedule: Q01DX001 (ip), vehicle: alcohol 93 % of control

COCC1OC(OC(=O)c2ccccc2)C(OC(=O)c2ccccc2)C(OC(=O)c2ccccc2)C1OC (centres undefined)
inactive: [1] 101 % of control | [14] 93 % of control

COc1cccc(CNc2ncnc3nc[nH]c23)c1
inactive: [3] 92 % of control | [4] 91 % of control | [5] 97 % of control

CC1(CO)C2CCC(CC2)C1CO (centres undefined)
inactive: [1] 102 % of control | [8] 95 % of control | [2] 96 % of control | [10] 94 % of control | [14] 96 % of control

Cc1nc(/N=C(/N)N(C)C)[nH]c(=O)c1C
inactive: [6] 97 % of control | [7] 103 % of control | endpoint: mean survival time, dose: 400.0 mg/kg/injection, schedule: Q01DX001 (ip), vehicle: saline 109 % of control

CCOP(=O)(OCC)C1=C(P(=O)(OCC)OCC)C(F)(F)C(F)(F)C1(F)F
inactive: endpoint: mean survival time, dose: 75.0 mg/kg/injection, schedule: Q01DX001 (ip), vehicle: other 107 % of control

CCCCCCC(C)(O)CCCCCC
inactive: [8] 93 % of control | [10] 96 % of control | [12] 101 % of control

CC(=O)Oc1cc(Cl)c(Cl)cc1Cl
inactive: [8] 108 % of control | [10] 97 % of control | [12] 94 % of control

CCOC(=O)/C(=C/c1ccc(OCc2ccccc2)cc1)P(=O)(OCC)OCC
inactive: [3] 98 % of control | [4] 96 % of control | [5] 101 % of control

CC(=O)OCC1OC([n+]2c([O-])cc(=O)n3ccsc32)C(OC(C)=O)C1OC(C)=O (centres undefined)
inactive: endpoint: median survival time, dose: 11.25 mg/kg/injection, schedule: Q01DX005 (ip), vehicle: water 101 % of control | endpoint: median survival time, dose: 12.5 mg/kg/injection, schedule: Q01DX005 (ip), vehicle: distilled water + Tween-80 103 % of control | endpoint: median survival time, dose: 22.5 mg/kg/injection, schedule: Q01DX005 (ip), vehicle: water 100 % of control | endpoint: median survival time, dose: 25.0 mg/kg/injection, schedule: Q01DX005 (ip), vehicle: distilled water + Tween-80 98 % of control | endpoint: median survival time, dose: 45.0 mg/kg/injection, schedule: Q01DX005 (ip), vehicle: water 108 % of control | endpoint: median survival time, dose: 50.0 mg/kg/injection, schedule: Q01DX005 (ip), vehicle: distilled water + Tween-80 98 % of control | endpoint: median survival time, dose: 90.0 mg/kg/injection, schedule: Q01DX005 (ip), vehicle: water 114 % of control | endpoint: median survival time, dose: 100.0 mg/kg/injection, schedule: Q01DX005 (ip), vehicle: distilled water + Tween-80 102 % of control | endpoint: median survival time, dose: 180.0 mg/kg/injection, schedule: Q01DX005 (ip), vehicle: water 101 % of control | endpoint: median survival time, dose: 200.0 mg/kg/injection, schedule: Q01DX005 (ip), vehicle: distilled water + Tween-80 95 % of control

CCN(CC)CCNc1cc(C)nc(/N=C(\N)Nc2ccc(Br)c(C(F)(F)F)c2)n1
inactive: [3] 98 % of control

CN1c2ccccc2C2CC(CC#N)CC(=O)C21 (centres undefined)
inactive: [8] 96 % of control | [10] 93 % of control | [12] 95 % of control

Cc1c2c(c(C)c3c(C)nccc13)Cc1ccccc1-2
inactive: [9] 92 % of control | [11] 92 % of control | [13] 88 % of control
